From patent US9995734B2, “Human T cell line assay for evaluating the immunologic identity of glatiramer acetate preparations” (Mylan Inc., priority 2013, dated 2018)
Where “and” joins values, the source holds several entries; their conditions need not be identical. Equal values may be shown once.

Experiments:
Donor 3 GMA T-Cell Lines = experiment: ATP proliferation assay (CellTiter Glo), Donor 3 GMA T-cell lines, incl. reactivity to non-canonical GA peptides; assay type: cell-based, human; conditions: for proliferation response to non-canonical GA peptides: 0, 1, 3, 10 μg/mL; for Non-Canonical Peptide Reactivity: at least one proliferation value >=2 times no antigen control
Donor 3 COP T-Cell Lines = experiment: ATP proliferation assay (CellTiter Glo), Donor 3 COP T-cell lines, incl. reactivity to non-canonical GA peptides; assay type: cell-based, human; conditions: for Non-Canonical Peptide Reactivity: at least one proliferation value >=2 times no antigen control

Substance: poly (Glu-Lys; 1:4) [GL 14]
- proliferation response to non-canonical GA peptides (Donor 3 GMA T-Cell Lines; 165-B5G and 165-E7G, Day 55): responded well
- Non-Canonical Peptide Reactivity (Donor 3 GMA T-Cell Lines; 165-B5G): GL 14
- Non-Canonical Peptide Reactivity (Donor 3 GMA T-Cell Lines; 165-C5G): GL 14
- Non-Canonical Peptide Reactivity (Donor 3 GMA T-Cell Lines; 165-E7G): GL 14
- Non-Canonical Peptide Reactivity (Donor 3 GMA T-Cell Lines; 165-E9G): GL 14
- Non-Canonical Peptide Reactivity (Donor 3 GMA T-Cell Lines; 165-F5G): GL 14
- proliferation response to non-canonical GA peptides (Donor 3 GMA T-Cell Lines; 165-F10G, 165-C5G, 165-H11G, 165-C7C, 165-E9G, 165-F5G, minimum 55 days in culture): responded well
- Non-Canonical Peptide Reactivity (Donor 3 GMA T-Cell Lines; 165-F10G): GL 14
- Non-Canonical Peptide Reactivity (Donor 3 GMA T-Cell Lines; 165-H11G): GL 14
- Reactive T-Cell Line (Donor 3 GMA T-Cell Lines; Donor 3 GMA lines, at least a 50% increase in proliferation relative to a control after stimulation with the non-canonical GA peptide): 165-B5G (Donor 3) and 165-C5G (Donor 3) and 165-E7G (Donor 3) and 165-E9G (Donor 3) and 165-F5G (Donor 3) and 165-F10G (Donor 3) and 165-H11G (Donor 3)
- Proliferation (luminescent ATP assay), Mean (Donor 3 GMA T-Cell Lines; T-cell line 165-B5G, 1.25 μg/mL antigen, Day 55 of culturing, No Antigen Value 846): 3912 RLU
- Proliferation (luminescent ATP assay), Mean (Donor 3 GMA T-Cell Lines; T-cell line 165-B5G, 2.5 μg/mL antigen, Day 55 of culturing, No Antigen Value 846): 3245 RLU
- Proliferation (luminescent ATP assay), Mean (Donor 3 GMA T-Cell Lines; T-cell line 165-B5G, 5 μg/mL antigen, Day 55 of culturing, No Antigen Value 846): 501 RLU
- Proliferation (luminescent ATP assay), Mean (Donor 3 GMA T-Cell Lines; T-cell line 165-B5G, 10 μg/mL antigen, Day 55 of culturing, No Antigen Value 846): 45 RLU
- Proliferation (luminescent ATP assay), Mean (Donor 3 GMA T-Cell Lines; T-cell line 165-C5G, 1.25 μg/mL antigen, autologous B-LCL): 1412 RLU
- Proliferation (luminescent ATP assay), Mean (Donor 3 GMA T-Cell Lines; T-cell line 165-C5G, 2.5 μg/mL antigen, autologous B-LCL): 5418 RLU
- Proliferation (luminescent ATP assay), Mean (Donor 3 GMA T-Cell Lines; T-cell line 165-C5G, 5 μg/mL antigen, autologous B-LCL): 703 RLU
- Proliferation (luminescent ATP assay), Mean (Donor 3 GMA T-Cell Lines; T-cell line 165-C5G, 10 μg/mL antigen, autologous B-LCL): 43 RLU
- Proliferation (luminescent ATP assay), Mean (Donor 3 GMA T-Cell Lines; T-cell line 165-E7G, 1.25 μg/mL antigen, autologous B-LCL, Day 55): 10001 RLU
- Proliferation (luminescent ATP assay), Mean (Donor 3 GMA T-Cell Lines; T-cell line 165-E7G, 2.5 μg/mL antigen, autologous B-LCL, Day 55): 14902 RLU
- Proliferation (luminescent ATP assay), Mean (Donor 3 GMA T-Cell Lines; T-cell line 165-E7G, 5 μg/mL antigen, autologous B-LCL, Day 55): 4087 RLU
- Proliferation (luminescent ATP assay), Mean (Donor 3 GMA T-Cell Lines; T-cell line 165-E7G, 10 μg/mL antigen, autologous B-LCL, Day 55): 58 RLU
- Proliferation (luminescent ATP assay), Mean (Donor 3 GMA T-Cell Lines; T-cell line 165-E9G, 1.25 μg/mL antigen, autologous B-LCL): 145 RLU
- Proliferation (luminescent ATP assay), Mean (Donor 3 GMA T-Cell Lines; T-cell line 165-E9G, 2.5 μg/mL antigen, autologous B-LCL): 801 RLU
- Proliferation (luminescent ATP assay), Mean (Donor 3 GMA T-Cell Lines; T-cell line 165-E9G, 5 μg/mL antigen, autologous B-LCL): 268 RLU
- Proliferation (luminescent ATP assay), Mean (Donor 3 GMA T-Cell Lines; T-cell line 165-E9G, 10 μg/mL antigen, autologous B-LCL): 38 RLU
- Proliferation (luminescent ATP assay), Mean (Donor 3 GMA T-Cell Lines; T-cell line 165-F5G, 1.25 μg/mL antigen, autologous B-LCL): 559 RLU
- Proliferation (luminescent ATP assay), Mean (Donor 3 GMA T-Cell Lines; T-cell line 165-F5G, 2.5 μg/mL antigen, autologous B-LCL): 2779 RLU
- Proliferation (luminescent ATP assay), Mean (Donor 3 GMA T-Cell Lines; T-cell line 165-F5G, 5 μg/mL antigen, autologous B-LCL): 89 RLU
- Proliferation (luminescent ATP assay), Mean (Donor 3 GMA T-Cell Lines; T-cell line 165-F5G, 10 μg/mL antigen, autologous B-LCL): 38 RLU
- Proliferation (luminescent ATP assay), Mean (Donor 3 GMA T-Cell Lines; T-cell line 165-F10G, 1.25 μg/mL antigen, autologous B-LCL): 5153 RLU
- Proliferation (luminescent ATP assay), Mean (Donor 3 GMA T-Cell Lines; T-cell line 165-F10G, 2.5 μg/mL antigen, autologous B-LCL): 19489 RLU
- Proliferation (luminescent ATP assay), Mean (Donor 3 GMA T-Cell Lines; T-cell line 165-F10G, 5 μg/mL antigen, autologous B-LCL): 1990 RLU
- Proliferation (luminescent ATP assay), Mean (Donor 3 GMA T-Cell Lines; T-cell line 165-F10G, 10 μg/mL antigen, autologous B-LCL): 53 RLU
- Proliferation (luminescent ATP assay), Mean (Donor 3 GMA T-Cell Lines; T-cell line 165-H11G, 1.25 μg/mL antigen, autologous B-LCL): 144 RLU
- Proliferation (luminescent ATP assay), Mean (Donor 3 GMA T-Cell Lines; T-cell line 165-H11G, 2.5 μg/mL antigen, autologous B-LCL): 4416 RLU
- Proliferation (luminescent ATP assay), Mean (Donor 3 GMA T-Cell Lines; T-cell line 165-H11G, 5 μg/mL antigen, autologous B-LCL): 118 RLU
- Proliferation (luminescent ATP assay), Mean (Donor 3 GMA T-Cell Lines; T-cell line 165-H11G, 10 μg/mL antigen, autologous B-LCL): 40 RLU
- Non-Canonical Peptide Reactivity (Donor 3 COP T-Cell Lines; 165-C4C): GL 14
- Non-Canonical Peptide Reactivity (Donor 3 COP T-Cell Lines; 165-C7C): GL 14
- proliferation response to non-canonical GA peptides (Donor 3 COP T-Cell Lines; 165-F3C (Day 77) and 165-C4C (Day 66), 0, 1, 3, 10 μg/mL): responded well
- Non-Canonical Peptide Reactivity (Donor 3 COP T-Cell Lines; 165-F3C): GL 14
- proliferation response to non-canonical GA peptides (Donor 3 COP T-Cell Lines; 165-F6C, Day 76, 0, 1.25, 2.5, 5, 10 μg/mL): reacted
- response relative to the no antigen control (Donor 3 COP T-Cell Lines; 165-F6C, Day 76, dose of 2.5 μg/mL antigen): 4.4 fold
- Non-Canonical Peptide Reactivity (Donor 3 COP T-Cell Lines; 165-F6C): GL 14
- Reactive T-Cell Line (Donor 3 COP T-Cell Lines; Donor 3 COP lines, at least a 50% increase in proliferation relative to a control after stimulation with the non-canonical GA peptide): 165-C4C (Donor 3) and 165-C7C (Donor 3) and 165-F6C (Donor 3) and 165-F3C (Donor 3)
- Proliferation (luminescent ATP assay), Mean (Donor 3 COP T-Cell Lines; T-cell line 165-C4C, 1 μg/mL antigen, Day 66 of culture, 0 μg/mL 1881): 2833
- Proliferation (luminescent ATP assay), Mean (Donor 3 COP T-Cell Lines; T-cell line 165-C4C, 3 μg/mL antigen, Day 66 of culture, 0 μg/mL 1881): 4920
- Proliferation (luminescent ATP assay), Mean (Donor 3 COP T-Cell Lines; T-cell line 165-C4C, 10 μg/mL antigen, Day 66 of culture, 0 μg/mL 1881): 49
- Proliferation (luminescent ATP assay), Mean (Donor 3 COP T-Cell Lines; T-cell line 165-C7C, 1.25 μg/mL antigen, autologous B-LCL): 274 RLU
- Proliferation (luminescent ATP assay), Mean (Donor 3 COP T-Cell Lines; T-cell line 165-C7C, 2.5 μg/mL antigen, autologous B-LCL): 1797 RLU
- Proliferation (luminescent ATP assay), Mean (Donor 3 COP T-Cell Lines; T-cell line 165-C7C, 5 μg/mL antigen, autologous B-LCL): 537 RLU
- Proliferation (luminescent ATP assay), Mean (Donor 3 COP T-Cell Lines; T-cell line 165-C7C, 10 μg/mL antigen, autologous B-LCL): 39 RLU
- Proliferation (luminescent ATP assay), Mean (Donor 3 COP T-Cell Lines; T-cell line 165-F3C, 1 μg/mL antigen, Day 77 of culture, 0 μg/mL 1563): 2542
- Proliferation (luminescent ATP assay), Mean (Donor 3 COP T-Cell Lines; T-cell line 165-F3C, 3 μg/mL antigen, Day 77 of culture, 0 μg/mL 1563): 7091
- Proliferation (luminescent ATP assay), Mean (Donor 3 COP T-Cell Lines; T-cell line 165-F3C, 10 μg/mL antigen, Day 77 of culture, 0 μg/mL 1563): 65
- Proliferation (luminescent ATP assay), Mean (Donor 3 COP T-Cell Lines; T-cell line 165-F6C, 1.25 μg/mL antigen, Day 76 of culture, No Antigen value 517): 699
- Proliferation (luminescent ATP assay), Mean (Donor 3 COP T-Cell Lines; T-cell line 165-F6C, 2.5 μg/mL antigen, Day 76 of culture, No Antigen value 517): 2,267
- Proliferation (luminescent ATP assay), Mean (Donor 3 COP T-Cell Lines; T-cell line 165-F6C, 5 μg/mL antigen, Day 76 of culture, No Antigen value 517): 114
- Proliferation (luminescent ATP assay), Mean (Donor 3 COP T-Cell Lines; T-cell line 165-F6C, 10 μg/mL antigen, Day 76 of culture, No Antigen value 517): 33
